Experimental data from PubChem BioAssay (NCI).
Several values for one entry are separate records, joined by “and”; a condition that tells them apart may be missing. Equal entries are not always repeated.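 Protocol summary: plate cells (96-well), add compound at 5 concentrations, incubate 48 h, interpolate endpoints linearly. The concentration for 50% growth inhibition is given as GI50. TGI denotes the concentration required for complete inhibition of growth.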

What was measured:
Experiment in all cases: DTP human tumour cell line panel, 48 h
HOP-92 NSCLC = system: HOP-92 NSCLC
MALME-3M melanoma = system: MALME-3M melanoma
NCI-H23 lung = system: NCI-H23 lung
NCI/ADR-RES ovarian = system: NCI/ADR-RES ovarian
PC-3 prostate = system: PC-3 prostate
RPMI-8226 leukemia = system: RPMI-8226 leukemia
SF-295 CNS = system: SF-295 CNS
SK-MEL-5 melanoma = system: SK-MEL-5 melanoma
SK-OV-3 ovarian = system: SK-OV-3 ovarian
SNB-19 CNS = system: SNB-19 CNS

SMILES | GI50 (HOP-92 NSCLC) | TGI (HOP-92 NSCLC) | GI50 (MALME-3M melanoma) | TGI (MALME-3M melanoma) | GI50 (NCI-H23 lung) | TGI (NCI-H23 lung) | GI50 (NCI/ADR-RES ovarian) | TGI (NCI/ADR-RES ovarian) | GI50 (PC-3 prostate) | TGI (PC-3 prostate) | GI50 (RPMI-8226 leukemia) | TGI (RPMI-8226 leukemia) | GI50 (SF-295 CNS) | TGI (SF-295 CNS) | GI50 (SK-MEL-5 melanoma) | TGI (SK-MEL-5 melanoma) | GI50 (SK-OV-3 ovarian) | TGI (SK-OV-3 ovarian) | GI50 (SNB-19 CNS) | TGI (SNB-19 CNS)
Cn1c(=O)c(Oc2ccc(F)cc2F)cc2cnc(NCC(C)(C)O)nc21 | > 25 µM | > 25 µM | > 25 µM | > 25 µM | > 25 µM | > 25 µM | > 25 µM | > 25 µM | > 25 µM | > 25 µM | > 25 µM | > 25 µM | > 25 µM | > 25 µM | > 25 µM | > 25 µM | > 25 µM | > 25 µM | > 25 µM | > 25 µM
COc1c(B(O)O)cccc1-c1nc2c(F)cc3n[nH]c(C)c3c2c2c1CCCC2 | 0.0117 µM | 2.57 µM | 2.5 µM | 7.73 µM | 1.33 µM | > 27.8 µM | 1.48 µM | > 50 µM | 1.46 µM | > 50 µM | 0.655 µM | 4.81 µM | 1.28 µM | > 40.6 µM | 0.932 µM | 2.96 µM | 0.666 µM | 4.71 µM | 1.17 µM | > 50 µM
NC(=O)c1csc(-c2ccc(CO)o2)n1 |  | > 100 µM |  | > 100 µM |  | > 100 µM |  | > 100 µM |  | > 100 µM |  | > 100 µM |  | > 100 µM |  | > 100 µM |  | > 100 µM |  | > 100 µM
O=C(/C=C/C=C/c1ccc2c(c1)OCO2)N/N=C\c1ccc(O)cc1O | 1.98 µM | 13.5 µM | 2.03 µM | 10.5 µM | 2.11 µM | 10.6 µM | 1.29 µM | 7.6 µM | 2.86 µM | 23.1 µM |  |  | 0.925 µM | 12.9 µM | 1.63 µM | 3.87 µM | 3.43 µM | 20.9 µM | 2.79 µM | 24.2 µM
Nc1n[nH]c2ccc([C@@H]3Nc4ccc5cn[nH]c5c4[C@H]4C5CCC(C5)[C@@H]34)cc12 (stereo partly specified) | 2.14 µM | > 89.4 µM | 0.522 µM | > 100 µM | 0.453 µM | 38.5 µM | 0.887 µM | > 24.1 µM | 0.476 µM | > 100 µM | 0.346 µM | 11.1 µM | 0.277 µM | 13.2 µM | 0.355 µM | 3.45 µM | 0.831 µM | > 100 µM | 0.601 µM | > 100 µM
Cc1c(Cl)c(C)c(Cl)c(O)c1Cl |  | 58 µM |  | 54.3 µM |  | 94 µM |  | 72.6 µM |  | 63.9 µM |  | 68.3 µM |  | > 100 µM |  | 35.9 µM |  | > 100 µM |  | > 100 µM
Cc1cnc(-c2ccc(-c3ccc(NC(=O)Nc4c(F)cc(F)cc4F)cc3F)c3c2C(=O)NC3)[nH]1 | 1.31 µM and 2.01 µM | 6.37 µM and 12.1 µM | 0.124 µM and 0.106 µM | 2.37 µM and 2.8 µM | 0.286 µM and 0.545 µM | 5.5 µM and 6.52 µM | > 100 µM | > 100 µM | 1.41 µM and 2.57 µM | 3.82 µM and 30.1 µM | 1.02 µM and 0.715 µM | 6.02 µM and > 33 µM |  | 18.8 µM and 18.4 µM | 0.852 µM and 2.09 µM | 9.16 µM and 14.1 µM | 1.42 µM and 3.59 µM | 18.3 µM and 23.3 µM | 2 µM and 2.51 µM | 14.4 µM and 15.5 µM
Cc1cc(-c2cc(OC(=O)c3ccccc3)ccc2Cl)cc2nnc(Nc3ccc(OCCN4CCCC4)cc3)nc12 | 0.303 µM | 1.69 µM | 1.45 µM | 2.93 µM | 1.72 µM | 3.66 µM | 1.86 µM | 4.1 µM | 1.16 µM | 2.47 µM | 1.6 µM | 3.63 µM | 1.45 µM | 2.79 µM | 1.52 µM | 2.89 µM | 1.58 µM | 3.09 µM | 1.86 µM | 3.37 µM
CC[C@@H](C)/C=C(C)/C=C/C(=O)c1c(O)c(-c2ccc(O)cc2)cn(OC2CC(=O)CCC(C)OC(=O)CC2O)c1=O (stereo partly specified) | 0.509 µM | 18.6 µM | 0.305 µM | 6.8 µM | 0.406 µM | 9.29 µM | 0.286 µM | 3.03 µM | 5.62 µM | > 91.5 µM | 0.463 µM | 22.9 µM | 0.331 µM | 4.89 µM | 0.271 µM | 0.978 µM | 0.463 µM | 35.6 µM | 0.554 µM | 14.9 µM
COc1ccc(/C=C\c2cc(OC)c(OC)c(OC)c2)c(NS(=O)(=O)c2ccc(F)cc2)c1O | 0.0723 µM | 16.7 µM | 10.2 µM | > 100 µM | 0.128 µM | > 62.4 µM | 0.179 µM | 3.4 µM | 0.0428 µM | > 70.8 µM | 0.0448 µM | 18.9 µM | 0.214 µM | > 45.9 µM | 0.102 µM | 0.515 µM | 0.211 µM | > 100 µM | 0.156 µM | > 100 µM
C=CC(=O)N1CCC[C@@H](n2nc(-c3ccc(Oc4ccccc4)cc3)c3c(N)ncnc32)C1 | 2.67 µM | > 8.69 µM | > 10 µM | > 10 µM | > 10 µM | > 10 µM | > 6.08 µM | > 10 µM | > 10 µM | > 10 µM | > 7.41 µM | > 10 µM | > 9.42 µM | > 10 µM | > 10 µM | > 10 µM | 0.0285 µM | > 2.42 µM | > 10 µM | > 10 µM
Fc1ccc(Nc2nc3nonc3nc2Nc2ccc(I)cc2)cc1 | 0.04 µM | 0.326 µM | 0.0939 µM | 0.511 µM | 0.265 µM | 1.31 µM | 0.272 µM | 1.95 µM | 0.181 µM | 10.7 µM | 0.0855 µM | 2.13 µM | 0.214 µM | 0.792 µM | 0.147 µM | 0.325 µM | 0.269 µM | 0.962 µM | 0.275 µM | 15.9 µM
COc1cc2c(cc1[N+](=O)[O-])C(=O)C(Br)(Br)CCC2 |  | 17 µM |  | 4.99 µM |  | 8.59 µM |  | 7.31 µM |  | 17 µM |  | 4.07 µM |  | 19.4 µM |  | 3.77 µM |  | 9.41 µM |  | 19.5 µM
O=C(O)c1ccc(/C=N/N=C2c3ccccc3-c3ccccc32)cc1 |  | > 100 µM |  | > 100 µM |  | > 100 µM |  | > 100 µM |  | > 100 µM |  | > 100 µM |  | 32.6 µM |  | > 100 µM |  | > 100 µM |  | > 100 µM
C[C@]12CC[C@@H]3c4ccc(OC(=O)N(CCCl)CCCl)cc4CC[C@H]3[C@@H]1CC[C@@H]2OP(=O)(O)O | > 100 µM | > 100 µM | 83.5 µM | > 100 µM | 38.4 µM | > 100 µM | 49.5 µM | > 100 µM | 41.2 µM | > 100 µM | 39.8 µM | > 100 µM | 12.5 µM | 32.5 µM | 37.7 µM | > 100 µM | 32.7 µM | > 89.2 µM | 28.5 µM | > 57.8 µM
Cc1c(C(=O)c2ccccc2)[n+](=O)c2cc(F)c(F)cc2n1[O-] | 3.72 µM | 14.7 µM | 2.7 µM | 7.76 µM | 1.72 µM | 3.16 µM | 1.76 µM | 3.23 µM | 3.37 µM | 14.1 µM |  |  | 1.95 µM | 3.46 µM | 2.03 µM | 4.24 µM | 3.7 µM | 12.9 µM | 2.3 µM | 5.3 µM
CC#CC#C/C(=C/C=CC(=O)OC)SC |  | > 100 µM |  | > 100 µM |  |  |  | > 100 µM |  | > 100 µM |  |  |  | > 100 µM |  | > 100 µM |  | > 100 µM |  | 
COC(=O)c1c2c(c(C)[n+]([O-])c1C)C(=O)C(NCc1ccc(O)cc1)=CC2=O | 2.52 µM | 5.12 µM | 0.256 µM | 0.93 µM | 1.43 µM | 3.5 µM | 2.2 µM | 6.37 µM | 2 µM | 6.55 µM | 1.78 µM | 4.18 µM | 1.67 µM | 3.17 µM | 1.27 µM | 2.59 µM |  |  |  | 
O=C(Nc1cccc(-n2cc(-c3ccncc3)c(-c3ccc(Cl)c(O)c3)n2)c1)Nc1ccc(Cl)c(Cl)c1 | 0.679 µM | 1.91 µM | 1.19 µM | 8.1 µM | 1.22 µM | 29.1 µM | 2.74 µM | > 32.5 µM | 0.834 µM | > 32.5 µM | 1.03 µM | > 32.5 µM |  |  | 0.57 µM | 1.16 µM | 1.2 µM | > 32.5 µM | 1.46 µM | > 32.5 µM
CN(C)c1ccc(/C=c2/c3cc(O)ccc3n3c2cc(-c2ccccc2)[n+]3C)cc1 |  | 3.9 µM |  |  |  | 4.64 µM |  | > 100 µM |  | 2.25 µM | 1.35 µM |  |  | > 100 µM |  | 2.04 µM | 6.13 µM | > 100 µM | 0.277 µM | 1.7 µM and 1.47 µM
CC(C)C1=CC2=C(C(=O)C1=O)C13CCCC(C)(C)C1CC2OC3=O (stereo unspecified) |  | 37.3 µM |  |  |  | 61.7 µM |  | 40.1 µM |  | 63.2 µM |  | 39.7 µM |  | > 100 µM |  | 55.1 µM |  | > 100 µM |  | > 100 µM
